Patent US20100240767A1, “Melanogenesis inhibitiuon by 3,5-dimethoxy-4'-hydroxystilbenes and cosmeceutical compositions thereof” (priority 2009, published 2010)
Converted amounts (≈) assume the structure as drawn.

Tests used:
[1] = test system: B16F1 mouse melanoma cell line; experiment: melanogenesis inhibition in MSH-induced B16F1 mouse melanoma cell line; type: cell-based
Experimental: 3,5-dimethoxy-4′-hydroxystilbene was studied for melanogenesis inhibition in B16F1 mouse melanoma cell line. B16F1 cells were induced with 0.5 nM MSH (Melanocyte stimulating hormone) and then treated with varying concentrations of the sample. Sample treatment was given thrice after every 72 hrs. On the 9th day of treatment, the melanin from the cells was extracted with 1N NaOH and the absorbance was read at 405 nm in a Fluostar Optima micro plate reader.

[2] = test system: Swiss 3T3 mouse fibroblast cells; experiment: UV protection in Swiss 3T3 mouse fibroblast cells (SRB viability); type: cell-based; details: UV A (0.5 J/cm2) and UV B (0.05 J/cm2), 72 hours incubation, SRB staining
Experimental: 3,5-dimethoxy-4′-hydroxystilbene was studied for UV protection in Swiss 3T3 mouse fibroblast cells. Swiss 3T3 fibroblast cell monolayers were exposed to UV A (0.5 J/cm2) and UV B (0.05 J/cm2) in the presence and absence of sample treatment at varying concentrations. After UV exposure, the cells were incubated in CO2 incubator for 72 hours and the cell viability was determined by SRB (Sulphorhodomine B) dye staining. The UV protection is determined as the enhanced percentage of viable sample treated cells as compared to the untreated cells after UV exposure.

mushroom tyrosinase = mushroom tyrosinase inhibitory activity; type: biochemical; details: 400 U/ml mushroom tyrosinase, 3.53 mM L-tyrosine substrate, absorbance 492 nm at 10th minute
Experimental: The mushroom tyrosinase inhibitory activity of 3,5-dimethoxy-4′-hydroxystilbene was studied in a micro plate by incubating varying concentrations of the sample with 400 U/ml of mushroom tyrosinase and then by the addition of 3.53 mM of L-tyrosine substrate. The absorbance at the 10th minute of the reaction was read in a Fluostar Optima micro plate reader at 492 nm.

IC50 ([1]; Mus musculus, B16-F1, B16F1 cells induced with 0.5 nM MSH, treated thrice every 72 hrs, melanin read at 405 nm on 9th day): 0.5 µg/mL (≈ 1.95 µM)
inhibition of mushroom tyrosinase IC50 (mushroom tyrosinase): 7 µg/mL
Compound: COc1cc(/C=C/c2ccc(O)cc2)cc(OC)c1 [3,5-dimethoxy-4′-hydroxystilbene]
melanogenesis inhibition potential relative to Glabridin ([1]; times higher potential than Glabridin, B16F1 cells): about 6 times
UV protection (enhanced percentage of viable treated cells as compared to the untreated cells after UV exposure) [2]: 32%
